Results: a melting point compilation (Tetko et al.; mined from patent text by program, amines drawn as free bases though some values may be those of a salt)

Row | SMILES | melting point [°C]
1 | CCN1C(=O)C(=CC=C2C=C(c3ccccc3)C=C3N2c2ccccc2C3(C)C)C(=O)N(CC)C1=S | > 310
2 | COCC(C)(C)Cc1cc(N(C)C)ccn1 | 56 to 58
3 | CCSC1=C(C#N)C(c2ccccc2)(c2ccccc2)C(=O)N1CCCBr | 97
4 | CC1(C)CCC(C)(C)c2cc(CCCSN3C=CC=NC3)c(/C=C/c3ccc(C(=O)O)cc3)cc21 | 177 to 178
5 | O=C(O)c1c(F)ccc([N+](=O)[O-])c1C(F)(F)F | 190
6 | O=C(NCCO[N+](=O)[O-])Oc1ccccc1 | 61 to 62
7 | CN1CCC(OC(=O)COC(=O)c2ccccc2Nc2ccnc3c(C(F)(F)F)cccc23)(c2ccccc2)CC1 | 144 to 145
8 | CCCOc1ccccc1-c1nc(N)c(NC(=O)C(F)(F)F)c(=O)[nH]1 | 203 to 204
9 | Cc1cc(C(C)N(O)C(N)=O)c(C)o1 (centres undefined) | 145 to 146
10 | CCCCCC(C)C(C)c1cc(O)c2c(c1)OC(C)(C)C1=C2CN(CC(=O)O)CC1 (centres undefined) | 192 to 195
11 | COc1cc2c(cc1OC)C(=O)C(N1CCC(n3c(=O)[nH]c4ccccc43)CC1)CC2 (centres undefined) | 238 to 239
12 | O=C1CC(=Cc2c[nH]c3ccccc23)C(=O)O1 | 90 to 91
13 | Cc1nc(N)c2nc(C)n(CC3(O)CCC3)c2c1C | > 250
14 | CN1CCN(c2cc(Cl)cc3c2c(=O)n(Cc2ccccc2Cl)c(=O)n3Cc2ccccc2)CC1 | 87 to 92
15 | COc1ccc(C2CCOCC2)c2sc(NC(=O)N3CCOCC3)nc12 | 217 to 220
16 | CCOC1(C)OCC(O)O1 (centres undefined) | 86 to 87
17 | O=Cc1cccn1C(=O)c1ccccc1[N+](=O)[O-] | 95 to 99
18 | Cc1sc(Br)c(C)c1C(=O)O | 183 to 184
19 | O=C(O)CCC(=O)C(=O)N1CCCC1 | 101 to 102
20 | Cc1nnc(CNC(=O)CNC(=O)CN)n1-c1ccc(Cl)cc1C(=O)c1ccccc1Cl | 60 to 65
21 | CCOc1cc(-c2cccc(C(=O)NCc3cccc4c3C(=O)N(C3CCC(=O)NC3=O)C4=O)n2)ccc1OC (centres undefined) | 196 to 198

Row | SMILES | melting point [°C]
22 | NCCSC(c1ccccc1)c1ccccc1 | 74
23 | CCN(CC)P(N)(=O)N(c1ccc(S(=O)(=O)c2ccccc2)cc1)c1ccc(S(=O)(=O)c2ccccc2)cc1 (centres undefined) | 115 to 130
24 | CN(Cc1ccc(NC(=O)C2=Cc3cc(-c4ccc5c(c4)OCO5)ccc3SCC2)cc1)C1CCOCC1 | 193 to 194
25 | COC(=O)c1ccccc1NC(=O)NCc1ccccc1 | 140 to 141
26 | NS(=O)(=O)c1cc2c(cc1Cl)C(=O)NC2=O | 121 to 125
27 | Nc1ccc(N2CCCC2)nn1 | 209 to 211
28 | CN1C(=O)CN=C(c2ccccc2F)c2c1ccc(NC(=O)NC(C)(C)C)c2Cl | 206 to 208
29 | O=S(=O)(Nc1cccc(Cl)c1)c1cc(S(=O)(=O)Nc2cccc(Cl)c2)c2cc(O)ccc2c1 | 206 to 208
30 | CN(C(=O)OCc1ccccc1)[C@@H](CCC(=O)O)C(=O)O | 97 to 98
31 | Cc1nc(-c2cnn(-c3c(Cl)cc(C(F)(F)F)cc3Cl)n2)[nH]c1S(=O)(=O)Cl | 254 to 255
32 | CCCCCCCCCCCCCCCCCC(=O)SC1CCN(C(C(=O)OC)c2ccccc2F)CC1 (centres undefined) | 50 to 52
33 | CCc1nn(CCO)c(CO)c1Sc1cc(Cl)cc(Cl)c1 | 106 to 108
34 | COc1ccc(-c2nn(Cc3ccccc3)c(=O)c3ccccc23)c(O)c1OC | 155 to 156
35 | CCCOc1ccc(S(=O)(=O)N2CCN(CCO)CC2)cc1-c1nc2c(CCC)nn(C)c2c(=O)[nH]1 | 158 to 159
36 | COC(=O)c1ccc(/C=C/C(=O)O)c(Cl)c1 | 221
37 | O=C1c2ccccc2C(=O)N1CCCCc1cc(-c2ccccn2)nc(-c2ccccn2)c1 | 128
38 | CCn1nnnc1SCc1c(S(C)(=O)=O)ccc(C(=O)OC)c1Cl | 109 to 110
39 | O=C(OC1CCCCCC1=O)c1ccccc1 (centres undefined) | 59 to 60
40 | Cc1ccc(OCCOS(N)(=O)=O)cc1 | 108 to 110
41 | CN(C)c1ccc(C(=O)Nc2ccc3ccc(Cl)nc3n2)cc1 | 248

Next, values leading:

Row | melting point [°C] | SMILES
42 | 185 to 187 | Nc1sc(-c2ccccc2)c(CN2CCCCC2)c1C(=O)c1ccc(Cl)cc1
43 | 119 to 120 | CCOC(=O)C1=C(C(F)(F)F)Nc2n[nH]cc2C1c1cccc2ccccc12 (centres undefined)
44 | 137 to 138 | CCOc1cc(COc2nn(Cc3ccccc3)cc2CO)ccc1OCc1nc(-c2ccco2)oc1C
45 | 143 to 145 | N#Cc1cc([N+](=O)[O-])ccc1N1CCC(OC(=O)c2ccccc2)CC1
46 | 82 to 92 | CN(C)Cc1cc2cc(C(=O)NN)ccc2o1
47 | 126 to 127 | CCOC(=O)C1CCc2c(n(C)c3ccc(Cl)cc23)C1 (centres undefined)
48 | 266 | COc1ccc(C2C(C(=O)c3ccc(C)cc3)=C(O)C(=O)N2c2ccc(C)nn2)cc1 (centres undefined)
49 | 166 to 169 | OCC1Cc2c(c(Cl)cc3c(-c4c(F)cccc4F)noc23)O1 (centres undefined)
50 | 138 | CC(C)N(C1CCCCC1)S(=O)(=O)N[C@@H](Cc1ccc(Oc2nccc3cnccc23)cc1)C(=O)O
51 | 215 to 216 | COc1ccc(Cn2c(=O)ccc3cnc(Nc4ccccc4)nc32)cc1
52 | 140 to 150 | CC(C)(C)NC(=O)CN1C(=O)C(N)CC(c2ccc(Cl)c(Cl)c2)c2ccccc21 (centres undefined)
53 | 191 to 193 | Cc1ccsc1C=C1CCc2cc(OCCc3c[nH]cn3)ccc2C1=O
54 | 122 to 124 | CCOC(=O)c1sc(N2CCN(Cc3ccccc3)C2=O)nc1C
55 | 144 to 145 | CCOC(=O)c1cc2ccc(Cl)nc2[nH]1
56 | 234 to 236 | COc1ccc(N2C[C@@H](COS(C)(=O)=O)OC2=O)cc1
57 | 182 | CCCCc1ncc(C=O)n1Cc1ccc(C(=O)O)c2ccccc12
58 | > 300 | O=C(O)c1cc(-c2ccccc2)c(=O)n2c1-c1sccc1C2
59 | 222 to 225 | CC(=O)Nc1ccc(C2=NC(C)(C)C(c3ccncc3)C2)cc1 (centres undefined)
60 | 96 to 97 | COc1ccc2c(n1)c(CCNC(C)=O)c1n2Cc2ccccc2-1
61 | 198 to 199 | COC(=O)c1cccc(Cn2c(C(=O)NC(N)=S)cc3cc(C)cc(C)c32)c1

Row | melting point [°C] | SMILES
62 | 215 to 216 | CCOC(=O)c1c(-c2ccccc2C)c2cc(Cl)ccc2[nH]c1=O
63 | 144 | Cc1c(O)ccc(C(=O)c2cccs2)c1C
64 | 169 to 170 | O=C(Nc1ccc(Oc2ccccc2)cc1)N1CCN(c2ncnc3ccc(Br)cc23)CC1
65 | 163 to 164 | Cc1oc(-c2ccc3ccccc3c2)nc1COc1ccc(C=O)cc1
66 | 49 to 50 | Cc1c(Br)ccc(F)c1N
67 | 270 to 272 | O=C(Nc1n[nH]c2nc(Oc3ccc(F)cc3F)ncc12)OCc1ccccc1
68 | 290 to 293 | COC(=O)c1cc(=O)c2oc3ccccc3c(=O)c2n1C
69 | 145 to 146 | c1ccc(-c2ccc(COc3ccc4c(c3)CCC(CCn3ccnc3)C4)cc2)cc1 (centres undefined)
70 | 229 | CC(C)(CO)NS(=O)(=O)c1cccc(NC(=O)c2cnn3c(C(F)F)cc(-c4ccc(Cl)cc4)nc23)c1
71 | 95 to 105 | COCOc1ccc(C2(c3cccc(-c4cccnc4F)c3)N=C(N)N3CCCN=C32)cc1 (centres undefined)
72 | 160 | c1ccc2c(c1)OC[C@H](CN1CCC(CNc3nc4cccnc4s3)CC1)O2
73 | 218 | Cc1cc2ncc(-c3ccc(C(C)(C)C)cc3)c(N)n2n1
74 | 205 to 206 | CC1Cc2c(n(Cc3ccc(Cl)cc3)c3ccc(F)cc23)C(CC(=O)O)C1 (centres undefined)
75 | 125 to 129 | N#Cc1ccc(C(=O)NCCCCn2cnc3c(N)nc4ccccc4c32)cn1
76 | 112 to 114 | Oc1cc(Br)ccc1C12CC3CC(CC(C3)C1)C2
77 | 100 to 102 | CCON=C(C(C)=NO)c1ccc(OC[Si](C)(C)c2ccc(F)cc2)cc1
78 | 75 to 77 | COc1cc(C)c(C(=O)c2c(Cl)cncc2C(F)(F)F)c(OC)c1OC
79 | 253 to 255 | O=C(NCC(=O)N1CCSC1)c1cc2cc(Cl)ccc2[nH]1
80 | 136 to 138 | CC(C)OC(=O)C(C(=O)c1ccc2c(c1)OCO2)=C1SC=CS1
81 | 61.5 to 63 | FC1=COC(COCc2ccccc2)C(COCc2ccccc2)O1 (centres undefined)

Row | melting point [°C] | SMILES
82 | 168 to 169 | Cn1c(C(F)(F)F)cc(=O)n(-c2ccc3snc(-c4sccc4CO)c3c2)c1=O
83 | 230 to 231 | CC1(C(=O)c2c[nH]c3ncc(-c4cccc(N5CCN(S(C)(=O)=O)CC5)c4)nc23)CCCCC1
84 | 134 to 152 | Cc1cc(C2(C(F)(F)F)CC(c3ccc(S(C)=O)cc3)=NO2)ccc1NC(=O)c1cccc(I)c1C(=O)NC(C)C (centres undefined)
85 | 196 | NC(=O)C(Nc1ccccc1C1CC1)c1c(Cl)cccc1Cl (centres undefined)
86 | 155 to 156 | COc1cc(-c2nn(C)c(C#N)c2C)c(F)cc1Cl
87 | 206 to 207 | CC(C)(C)Sc1c(CC(C)(C)C(=O)O)n(Cc2ccc(Cl)cc2)c2ccc(Oc3ccccn3)cc12
88 | 192 | OC1CSC(Oc2cnc(-c3cncnc3)c(F)c2)C(O)C1O (centres undefined)
89 | 144 to 146 | O=C(Nc1ccc(F)c(C(F)(F)F)c1)N1COc2cc(OCc3ccccc3)ccc21
90 | 94 | Cc1ccc(-c2cccc(CCl)n2)cc1
91 | 161 to 163 | CCCCCCOc1cccc(N2CC(=O)NC(=O)N2)c1
92 | 60 to 65 | Cn1cc2ccc(F)cc2c1
93 | 111 to 112 | O=C1N[C@H](Cc2ccc(C(F)(F)F)cc2)[C@H](c2ccoc2)O1 (racemic)
94 | 201 | N#Cc1ccc(-c2cc3ccccc3[nH]2)cc1
95 | 157 to 163 | Cn1ncnc1COc1nn2c(-c3ccccc3F)nncc2c1-c1cccc(-c2cccnc2)c1
96 | 94 to 96 | CCC(=NO)c1ccc(Oc2cc(F)cc([C@@]3(OC)CCO[C@@H]3C)c2)cc1 (racemic)
97 | 242 to 244 | NC(=O)Cc1ccc2noc(-c3ccc(Cl)cc3)c2c1
98 | 174 to 176 | CC(=O)NC[C@H]1CN(c2ccc(N3CCC(n4nnnc4N)CC3)c(F)c2)C(=O)O1
99 | 153 to 154 | Cc1cc(C(C)C(=O)O)n(C)c1C(=O)c1ccc(Cl)cc1 (centres undefined)
